Blank lines part the entries; values can stand above or below the compound they belong to. Numbered stars: 1 amine (or outer) side, 2 acyl side, 3 side chain; on linkers, the order of the positions; unused ones are H or OH. Square brackets hold non-standard residues; d marks the D form. Peptide text beside a SMILES is read from it. X2 = O=C([C@H](Cc1cn(CCCCCCCCc2ccccc2)c2ccccc12)N[*:1])[*:2]; X1 = O=C([C@H](Cc1cn(CCCCCCCCc2ccccc2)cn1)N[*:1])[*:2]; pT = C[C@@H](OP(=O)(O)O)[C@H](N)C(=O)O
Biological target: Plk1 PBD (Homo sapiens, UniProt P53350)
Sequence (P53350 whole entry): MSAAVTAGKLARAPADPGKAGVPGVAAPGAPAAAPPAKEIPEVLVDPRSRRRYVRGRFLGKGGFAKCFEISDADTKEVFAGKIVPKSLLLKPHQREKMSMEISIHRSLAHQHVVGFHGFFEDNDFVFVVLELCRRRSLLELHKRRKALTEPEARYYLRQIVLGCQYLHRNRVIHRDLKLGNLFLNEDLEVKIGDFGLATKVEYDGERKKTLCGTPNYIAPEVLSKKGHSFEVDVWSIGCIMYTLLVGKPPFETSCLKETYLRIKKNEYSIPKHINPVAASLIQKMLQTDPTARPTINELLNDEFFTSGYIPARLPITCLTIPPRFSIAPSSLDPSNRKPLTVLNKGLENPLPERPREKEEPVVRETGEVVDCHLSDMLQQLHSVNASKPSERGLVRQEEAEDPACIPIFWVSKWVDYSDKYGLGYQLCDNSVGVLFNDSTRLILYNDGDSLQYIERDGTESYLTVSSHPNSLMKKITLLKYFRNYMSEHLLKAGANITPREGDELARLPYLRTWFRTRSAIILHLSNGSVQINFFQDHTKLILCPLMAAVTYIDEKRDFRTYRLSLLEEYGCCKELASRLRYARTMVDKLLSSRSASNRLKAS
Assay: ELISA-based Plk1 PBD-binding inhibition assay

affinity of non-phosphorylated control peptide (even at the highest concentration tested (300 μM)): negligible affinity
Compound: PLHST [reference compound]

Compound: CC(=O)N1CCC[C@H]1C(=O)N[C@@H](CC(C)C)C(=O)N[C@@H](Cc1cn(CCCCCCCCc2ccccc2)c2ccccc12)C(=O)N[C@@H](CO)C(=O)N[C@H](C(N)=O)[C@@H](C)OP(=O)(O)O [1d] (Ac-PL[X2]S[pT]-NH2; N-terminus and C-terminus assumed)
fold less affinity than 1c (ratio of IC50 relative to 1c): approximately 30 fold

Compound: CC(=O)N1CCC[C@H]1C(=O)N[C@@H](CC(C)C)C(=O)N[C@@H](Cc1cn(CCCCCCCCc2ccccc2)cn1)C(=O)N[C@@H](CO)C(=O)N[C@H](C(N)=O)[C@@H](C)OP(=O)(O)O [1c] (Ac-PL[X1]S[pT]-NH2; N-terminus and C-terminus assumed)
fold less affinity than 1b (ratio of IC50 relative to 1b): approximately 50 fold

Source: article PMC3530200 (Bioorganic & medicinal chemistry letters, 2012)
